Data as given in PubChem BioAssay AID256 (DTP/NCI, 2004).
Several values for one entry are separate records, joined by “and”; a condition that tells them apart may be missing. Equal values may be shown once. Toxic doses and inconclusive results are not listed. How the source made its calls: active means survival T/C of 150% or more; inactive means T/C below 125% in these data.

System: CD2F1 mice, L1210 leukemia ip, survival T/C
Test: NCI In Vivo Anticancer Drug Screen. Data for tumor model L1210 Leukemia (intraperitoneal) in CD2F1 (CDF1) mice
Settings: higher = longer survival
In short: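 Tumor-bearing mice (transplanted tumor) were split into treated and vehicle control groups, and the measured endpoint of each treated group was divided by that of its vehicle controls.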

[1] = endpoint: mean survival time, dose: 100.0 mg/kg/injection, schedule: Q04DX003 (ip), vehicle: saline
[2] = endpoint: mean survival time, dose: 100.0 mg/kg/injection, schedule: Q04DX002 (ip), vehicle: saline with Tween-80
[3] = endpoint: mean survival time, dose: 200.0 mg/kg/injection, schedule: Q04DX002 (ip), vehicle: saline with Tween-80
[4] = endpoint: mean survival time, dose: 400.0 mg/kg/injection, schedule: Q04DX002 (ip), vehicle: saline with Tween-80
[5] = endpoint: mean survival time, dose: 100.0 mg/kg/injection, schedule: Q01DX009 (ip), vehicle: saline with Tween-80
[6] = endpoint: mean survival time, dose: 200.0 mg/kg/injection, schedule: Q01DX009 (ip), vehicle: saline with Tween-80
[7] = endpoint: mean survival time, dose: 100.0 mg/kg/injection, schedule: Q01DX001 (ip), vehicle: saline

Measured: T/C

COc1ccc2nc3c(C)c4ccn(O)cc4c(C)c3c2c1
inactive: endpoint: mean survival time, dose: 25.0 mg/kg/injection, schedule: Q04DX003 (ip), vehicle: water 106 % of control | endpoint: mean survival time, dose: 50.0 mg/kg/injection, schedule: Q04DX003 (ip), vehicle: water 111 % of control | endpoint: mean survival time, dose: 100.0 mg/kg/injection, schedule: Q04DX003 (ip), vehicle: water 114 % of control | endpoint: mean survival time, dose: 178.0 mg/kg/injection, schedule: Q04DX003 (ip), vehicle: other 105 % of control | endpoint: mean survival time, dose: 266.0 mg/kg/injection, schedule: Q04DX003 (ip), vehicle: other 103 % of control | endpoint: mean survival time, dose: 400.0 mg/kg/injection, schedule: Q04DX003 (ip), vehicle: other 102 % of control | endpoint: mean survival time, dose: 600.0 mg/kg/injection, schedule: Q04DX003 (ip), vehicle: other 103 % of control

CC(S)CN (centres undefined)
inactive: endpoint: mean survival time, dose: 100.0 mg/kg/injection, schedule: Q01DX009 (ip), vehicle: saline 96 % of control | [1] 101 % of control | endpoint: mean survival time, dose: 200.0 mg/kg/injection, schedule: Q01DX009 (ip), vehicle: saline 94 % of control | endpoint: mean survival time, dose: 200.0 mg/kg/injection, schedule: Q04DX003 (ip), vehicle: saline 98 % of control | endpoint: mean survival time, dose: 400.0 mg/kg/injection, schedule: Q01DX009 (ip), vehicle: saline 101 % of control | endpoint: mean survival time, dose: 400.0 mg/kg/injection, schedule: Q04DX003 (ip), vehicle: saline 104 % of control

CCCCOC(=O)c1c(C(=O)OCCCC)c(-c2ccccc2)c2c(c1-c1ccccc1)-c1cccc3cccc-2c13
inactive: [2] 97 % of control | [3] 86 % of control | [4] 90 % of control

CNNCCCCC(=O)NC(C)C
inactive: endpoint: mean survival time, dose: 25.0 mg/kg/injection, schedule: Q04DX003 (ip), vehicle: saline 105 % of control | endpoint: mean survival time, dose: 50.0 mg/kg/injection, schedule: Q04DX003 (ip), vehicle: saline 101 % of control | [1] 101 % of control

O=P(O)(O)CP(=O)(O)O.[NH-]CC[NH-].[NH-]CC[NH-].[Pd+2].[Pd+2]
inactive: endpoint: mean survival time, dose: 3.13 mg/kg/injection, schedule: Q04DX003 (ip), vehicle: distilled water + Tween-80 95 % of control | endpoint: mean survival time, dose: 6.25 mg/kg/injection, schedule: Q04DX003 (ip), vehicle: distilled water + Tween-80 106 % of control | endpoint: mean survival time, dose: 12.5 mg/kg/injection, schedule: Q04DX003 (ip), vehicle: distilled water + Tween-80 95 % of control | endpoint: mean survival time, dose: 25.0 mg/kg/injection, schedule: Q04DX003 (ip), vehicle: distilled water + Tween-80 97 % of control | endpoint: mean survival time, dose: 50.0 mg/kg/injection, schedule: Q04DX003 (ip), vehicle: distilled water + Tween-80 98 % of control | endpoint: mean survival time, dose: 100.0 mg/kg/injection, schedule: Q04DX003 (ip), vehicle: distilled water + Tween-80 106 % of control

COC(=O)C1C(C(=O)OC)C2(C)C(=O)C1(C)C(c1ccccc1)=C2c1ccccc1 (centres undefined)
inactive: [2] 101 % of control | [3] 90 % of control | [4] 90 % of control

CCOP(=O)(OCC)C(C)c1ccccc1 (centres undefined)
inactive: [5] 100 % of control | [6] 94 % of control

O=C(CC(SCCN1CCOCC1)c1ccccc1)c1ccc([N+](=O)[O-])cc1 (centres undefined)
inactive: endpoint: mean survival time, dose: 100.0 mg/kg/injection, schedule: Q01DX001 (ip), vehicle: Klucel (hydroxypropylcellulose) (HPC) 93 % of control | endpoint: mean survival time, dose: 200.0 mg/kg/injection, schedule: Q01DX001 (ip), vehicle: Klucel (hydroxypropylcellulose) (HPC) 93 % of control

COc1ccc(C(O)(CC(=O)O)c2ccc(OC)cc2)cc1
inactive: [7] 98 % of control | endpoint: mean survival time, dose: 200.0 mg/kg/injection, schedule: Q01DX001 (ip), vehicle: saline 95 % of control | endpoint: mean survival time, dose: 400.0 mg/kg/injection, schedule: Q01DX001 (ip), vehicle: saline 97 % of control

c1ccc2c(c1)cc1cnc3cccc4ccc2c1c43
inactive: endpoint: mean survival time, dose: 12.5 mg/kg/injection, schedule: Q04DX002 (ip), vehicle: saline with Tween-80 96 % of control | endpoint: mean survival time, dose: 25.0 mg/kg/injection, schedule: Q04DX002 (ip), vehicle: saline with Tween-80 101 % of control | endpoint: mean survival time, dose: 50.0 mg/kg/injection, schedule: Q04DX002 (ip), vehicle: saline with Tween-80 90 % of control

Oc1ccccc1/C=N/c1nc2ccc(Cl)cc2s1.Oc1ccccc1/C=N/c1nc2ccc(Cl)cc2s1.[Zn]
inactive: endpoint: mean survival time, dose: 25.0 mg/kg/injection, schedule: Q01DX001 (ip), vehicle: saline 96 % of control | endpoint: mean survival time, dose: 50.0 mg/kg/injection, schedule: Q01DX001 (ip), vehicle: saline 91 % of control | [7] 87 % of control

NC(=S)N/N=C/c1nccn1-c1cccc([N+](=O)[O-])c1
inactive: endpoint: mean survival time, dose: 25.0 mg/kg/injection, schedule: Q04DX002 (ip), vehicle: Klucel (hydroxypropylcellulose) (HPC) 101 % of control | endpoint: mean survival time, dose: 50.0 mg/kg/injection, schedule: Q04DX002 (ip), vehicle: Klucel (hydroxypropylcellulose) (HPC) 96 % of control | endpoint: mean survival time, dose: 100.0 mg/kg/injection, schedule: Q04DX002 (ip), vehicle: Klucel (hydroxypropylcellulose) (HPC) 104 % of control

CC(C)(C)[Si](C)(C)Oc1ncc(F)c(O[Si](C)(C)C(C)(C)C)n1
inactive: endpoint: mean survival time, dose: 5.0 mg/kg/injection, schedule: Q01DX009 (ip), vehicle: distilled water + Tween-80 123 % of control | endpoint: mean survival time, dose: 10.0 mg/kg/injection, schedule: Q01DX009 (ip), vehicle: distilled water + Tween-80 113 % of control | endpoint: mean survival time, dose: 20.0 mg/kg/injection, schedule: Q01DX009 (ip), vehicle: distilled water + Tween-80 123 % of control

COc1cc(NC(=O)Nc2ccccc2C)c(OC)cc1Cl
inactive: [2] 90 % of control | [3] 90 % of control | [4] 86 % of control

NC(=O)N/N=C/C(c1ccccc1)c1ccccc1
inactive: [5] 105 % of control | [6] 94 % of control | endpoint: mean survival time, dose: 400.0 mg/kg/injection, schedule: Q01DX009 (ip), vehicle: saline with Tween-80 103 % of control

CC(C)NC(=O)Oc1ccccc1C(=O)OCc1ccccc1
inactive: endpoint: mean survival time, dose: 50.0 mg/kg/injection, schedule: Q01DX009 (ip), vehicle: Klucel (hydroxypropylcellulose) (HPC) 115 % of control | endpoint: mean survival time, dose: 100.0 mg/kg/injection, schedule: Q01DX009 (ip), vehicle: Klucel (hydroxypropylcellulose) (HPC) 108 % of control | endpoint: mean survival time, dose: 200.0 mg/kg/injection, schedule: Q01DX009 (ip), vehicle: Klucel (hydroxypropylcellulose) (HPC) 112 % of control

COc1cccc(CN2CCCNCC2)c1
inactive: endpoint: mean survival time, dose: 25.0 mg/kg/injection, schedule: Q01DX005 (ip), vehicle: water 96 % of control | endpoint: mean survival time, dose: 50.0 mg/kg/injection, schedule: Q01DX005 (ip), vehicle: water 96 % of control | endpoint: mean survival time, dose: 100.0 mg/kg/injection, schedule: Q01DX005 (ip), vehicle: water 94 % of control

CCOc1c[n+](C)c(C)s1
inactive: endpoint: mean survival time, dose: 50.0 mg/kg/injection, schedule: Q01DX001 (ip), vehicle: carboxymethylcellulose (CMC) 94 % of control | endpoint: mean survival time, dose: 100.0 mg/kg/injection, schedule: Q01DX001 (ip), vehicle: carboxymethylcellulose (CMC) 92 % of control | endpoint: mean survival time, dose: 200.0 mg/kg/injection, schedule: Q01DX001 (ip), vehicle: carboxymethylcellulose (CMC) 103 % of control

COc1cccc2c1C(CO)N1C(C#N)C3CC(C(=O)O)C(C1C2)N3C (centres undefined)
inactive: endpoint: median survival time, dose: 3.12 mg/kg/injection, schedule: Q01DX005 (ip), vehicle: saline 112 % of control | endpoint: median survival time, dose: 6.25 mg/kg/injection, schedule: Q01DX005 (ip), vehicle: saline 110 % of control | endpoint: median survival time, dose: 9.0 mg/kg/injection, schedule: Q01DX005 (ip), vehicle: suspension in saline 120 % of control and 111 % of control | endpoint: median survival time, dose: 12.5 mg/kg/injection, schedule: Q01DX005 (ip), vehicle: saline 112 % of control | endpoint: median survival time, dose: 15.0 mg/kg/injection, schedule: Q01DX005 (ip), vehicle: suspension in saline 124 % of control | endpoint: median survival time, dose: 41.67 mg/kg/injection, schedule: Q01DX005 (ip), vehicle: suspension in saline 87 % of control | endpoint: median survival time, dose: 50.0 mg/kg/injection, schedule: Q01DX005 (ip), vehicle: saline 89 % of control
